In the assay the target is PI3Kgamma (Homo sapiens (Human), UniProt P48736). The experiment in a line: Biochemical assay PI3Kgamma (Adapta TR-FRET). To be noted: read-out: PI3Kg/IC50. The source says:
The TR-FRET Adapta™ Universal Kinase Assay Kit was purchased from Invitrogen
Corporation (Carlsbad/CA, USA) (Cat. No. PV5099). The kit contains the following reagents: Adapta Eu-anti-ADP Antibody (Europium labeled anti-ADP antibody in HEPES buffered saline, Cat. No. PV5097), Alexa Fluor® 647-labeled ADP tracer (Alexa Fluor® 647-labeled ADP tracer in HEPES buffered saline, Cat. No. PV5098), proprietary TR-FRET dilution buffer pH 7.5 (Cat. No. PV3574).
PIK3CD substrate Phosphatidylinositol was obtained from Invitrogen (vesicules consisting of 2 mM PI in 50 mM HEPES pH7.5; Cat. No. PV5371).
Time-Resolved Fluorescence Resonance Energy Transfer (TR-FRET) is a technology based on energy transfer between two adjacent dyes, from an excited electron in one dye (the donor) to an electron of an adjacent dye (the acceptor) through resonance, then released as a photon. This energy transfer is detected by an increase in the fluorescence emission of the acceptor, and a decrease in the fluorescence emission of the donor. TR-FRET assays for protein kinases use a long-lifetime lanthanide Terbium or Europium chelates as the donor species which overcome interference from compound autofluorescence or light scatter from precipitated compounds, by introducing a delay after excitation by a flashlamp excitation source. Results are often expressed as a ratio of the intensities of the acceptor and donor fluorophores. The ratiometric nature of such a value corrects for differences in assay volumes between wells, as well as corrects for quenching effects due to colored compounds. The Adapta™ assay can be divided into two phases: a kinase reaction phase and an ADP detection phase. In the kinase reaction phase, all kinase reaction components are added to the well and the reaction is allowed to incubate for a set period of time specific for each kinase. After the reaction, a detection solution of Eu-labeled anti-ADP antibody, Alexa Fluor® 647-labeled ADP tracer, and EDTA (to stop the kinase reaction) are added to the assay well. ADP formed by the kinase reaction will displace the Alexa Fluor® 647-labeled ADP tracer from the antibody, resulting in a decrease in TR-FRET signal. In the presence of an inhibitor, the amount of ADP formed by the kinase reaction is reduced, and the resulting intact antibody-tracer interaction maintains a high TR-FRET signal. In the Adapta™ assay, the donor (Europium-anti-ADP antibody) is excited at 340 nm and will transfer its energy to the acceptor (Alexa Fluor® 647-labeled ADP tracer). The emission from the Alexa Fluor® 647 can be monitored with a filter centered at 665 nm because it is located between the emission peaks of the donor, which is measured at 615/620 nm.
50 nL of compound dilutions were dispensed onto white 384-well small volume polystyrene plate as described in section 2.2. Then 5 μL of PI3Kg and PI3Kd and lipid substrate (PI or PIP2:PS) followed by 5 μL of ATP (final assay volume 10 μL) are incubated at RT. The standard reaction buffer for the Adapta™ TR-FRET assay contained 10 mM Tris-HCl pH 7.5, 3 mM MgCl2, 50 mM NaCl, 1 mM DTT, 0.05% CHAPS. Reactions were stopped with 5 μL of a mixture of EDTA containing the Eu-labeled anti-ADP antibody and the Alexa Fluor® 647-labeled ADP tracer in TR-FRET dilution buffer (proprietary to IVG). Plates are read 15 to 60 mins later in a Synergy2 reader using an integration time of 0.4 seconds and a delay of 0.05 seconds. […] The standard compound NVP-BGT226 was used as a reference compound and included in all assay plates in the form of 16 dilution points in duplicate.
Data are analyzed using Excel fit software or Graphpad Prism. EC50 values were derived by fitting a sigmoidal dose-response curve to a plot of assay readout over inhibitor concentration. All fits were performed with the program XLfit4 (ID Business Solutions, Guildford, UK). […] All fits were performed with the program XLfit4 (ID Business Solutions, Guildford, UK).
(TR-FRET usually uses a lanthanide donor and a delayed reading to cut background.)
PI3Kgamma, sequence (P48736 whole entry, species assumed): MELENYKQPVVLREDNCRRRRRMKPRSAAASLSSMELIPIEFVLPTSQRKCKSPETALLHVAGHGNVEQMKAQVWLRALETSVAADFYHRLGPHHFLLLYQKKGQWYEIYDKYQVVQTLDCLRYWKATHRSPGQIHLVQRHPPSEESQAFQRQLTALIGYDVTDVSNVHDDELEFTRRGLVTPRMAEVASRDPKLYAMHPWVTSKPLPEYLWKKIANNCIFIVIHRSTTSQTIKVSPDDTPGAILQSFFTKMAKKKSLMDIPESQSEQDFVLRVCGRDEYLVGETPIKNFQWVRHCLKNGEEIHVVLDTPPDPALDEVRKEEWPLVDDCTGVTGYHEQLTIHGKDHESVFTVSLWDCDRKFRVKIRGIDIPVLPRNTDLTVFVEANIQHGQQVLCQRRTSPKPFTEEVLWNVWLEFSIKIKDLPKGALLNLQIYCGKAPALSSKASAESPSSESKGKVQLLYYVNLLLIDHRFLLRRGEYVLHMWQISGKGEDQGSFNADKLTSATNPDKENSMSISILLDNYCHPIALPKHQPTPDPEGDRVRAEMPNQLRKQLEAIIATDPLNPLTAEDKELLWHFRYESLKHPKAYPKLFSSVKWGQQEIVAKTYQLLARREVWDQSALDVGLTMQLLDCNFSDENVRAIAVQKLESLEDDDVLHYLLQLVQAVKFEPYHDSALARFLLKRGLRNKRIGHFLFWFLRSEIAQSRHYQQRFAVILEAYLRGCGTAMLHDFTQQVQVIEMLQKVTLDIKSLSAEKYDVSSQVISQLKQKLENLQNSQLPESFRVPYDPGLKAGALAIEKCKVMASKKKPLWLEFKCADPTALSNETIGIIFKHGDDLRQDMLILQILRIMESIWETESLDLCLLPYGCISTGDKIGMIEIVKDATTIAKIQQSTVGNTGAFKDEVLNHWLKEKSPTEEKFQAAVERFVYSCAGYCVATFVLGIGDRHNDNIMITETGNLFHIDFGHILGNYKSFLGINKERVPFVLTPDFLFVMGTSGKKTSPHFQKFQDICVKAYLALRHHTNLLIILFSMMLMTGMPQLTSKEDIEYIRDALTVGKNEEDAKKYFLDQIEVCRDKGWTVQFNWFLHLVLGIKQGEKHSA
In the case of `CC[C@H]1[C@H](c2ccc(OC)cc2)OC(=O)N1c1cc(-c2cnc(N)nc2C(F)(F)F)nc(N2CCOCC2)n1` (relative stereo) [Example 2, (4S*,5S*)-3-(2′-amino-2-morpholino-4′-(trifluoromethyl)-[4,5′-bipyrimidin]-6-yl)-4-ethyl-5-(4-methoxyphenyl)oxazolidin-2-one], the IC50 was 5800 nM. The same measure for `C[C@H]1[C@H](c2nccs2)OC(=O)N1c1cc(-c2cnc(N)nc2C(F)(F)F)nc(N2CCOCC2)n1` [Example 1, (4S,5R)-3-(2′-Amino-2-morpholin-4-yl-4′-trifluoromethyl-[4,5′]bipyrimidinyl-6-yl)-4-methyl-5-thiazol-2-yl-oxazolidin-2-one]: 92 nM. With `COc1ccc([C@@H]2OC(=O)N(c3cc(-c4cnc(N)nc4C(F)(F)F)nc(N4CCOCC4)n3)[C@H]2CO)cc1` [Example 3, (4S,5S)-3-(2′-Amino-2-morpholino-4′-(trifluoromethyl)-[4,5′-bipyrimidin]-6-yl)-4-(hydroxymethyl)-5-(4-methoxyphenyl)oxazolidin-2-one], the IC50 came to 110 nM. Turning to `C[C@H]1[C@H](c2ccccc2)OC(=O)N1c1cc(-c2cnc(N)nc2C(F)(F)F)nc(N2CCOCC2)n1` [Example 5], the IC50 is 3500 nM. Turning to `CC[C@H]1[C@H](c2nccs2)OC(=O)N1c1cc(-c2cnc(N)nc2C(F)(F)F)nc(N2CCOCC2)n1` [Example 7], the IC50 amounted to 3000 nM.

Turning to `CCC1C(c2cccnc2)OC(=O)N1c1cc(-c2cnc(N)nc2C(F)(F)F)nc(N2CCOCC2)n1` (stereo not drawn) [Example 8], the IC50 turned out to be 580 nM. The same measure for `CC1C(c2cccnc2)OC(=O)N1c1cc(-c2cnc(N)nc2C(F)(F)F)nc(N2CCOCC2)n1` (stereo not drawn) [Example 9]: 230 nM; for `Nc1ncc(-c2cc(N3C(=O)O[C@@H](c4ccccc4)[C@@H]3CO)nc(N3CCOCC3)n2)c(C(F)(F)F)n1` [Example 10]: 343 nM. In the case of `C[C@H]1[C@@H](c2nccs2)OC(=O)N1c1cc(-c2cnc(N)nc2C(F)(F)F)nc(N2CCOCC2)n1` [Example 11], the IC50 amounted to 102 nM. On to `COCCOc1ccc([C@@H]2OC(=O)N(c3cc(-c4cnc(N)nc4C(F)(F)F)nc(N4CCOCC4)n3)[C@H]2CO)cc1` [Example 12], for which the IC50 stood at 135 nM. The same measure for `Nc1ncc(-c2cc(N3C(=O)O[C@@H](c4ccc(OCCO)cc4)[C@@H]3CO)nc(N3CCOCC3)n2)c(C(F)(F)F)n1` [Example 13]: 100 nM; for `Nc1ncc(-c2cc(N3C(=O)O[C@@H](c4ccc(OCCCO)cc4)[C@@H]3CO)nc(N3CCOCC3)n2)c(C(F)(F)F)n1` [Example 14]: 27 nM.

(Values after US10202371B2, “Oxazolidin-2-one-pyrimidine derivatives and the use thereof as phosphatidylinositol-3-kinase inhibitors” (Novartis AG, priority 2012, dated 2019).)
